Reference: patent US8715714B2, “Uses of rare earth elements for hair improvement” (Micellbio Co., Ltd., priority 2006, dated 2014)
Entries after “also recorded” stand apart in the source; their conditions may differ.

Assays:
Format in all cases: cell-based
tyrosinase [1] = target: T1, tyrosinase (Homo sapiens, UniProt P14679); assay: Activity of tyrosinase in Sk-mel-31 cells; conditions: 10 μg to 1 pg, versus control group, FIG. 7
T1 sequence (P14679 19-529): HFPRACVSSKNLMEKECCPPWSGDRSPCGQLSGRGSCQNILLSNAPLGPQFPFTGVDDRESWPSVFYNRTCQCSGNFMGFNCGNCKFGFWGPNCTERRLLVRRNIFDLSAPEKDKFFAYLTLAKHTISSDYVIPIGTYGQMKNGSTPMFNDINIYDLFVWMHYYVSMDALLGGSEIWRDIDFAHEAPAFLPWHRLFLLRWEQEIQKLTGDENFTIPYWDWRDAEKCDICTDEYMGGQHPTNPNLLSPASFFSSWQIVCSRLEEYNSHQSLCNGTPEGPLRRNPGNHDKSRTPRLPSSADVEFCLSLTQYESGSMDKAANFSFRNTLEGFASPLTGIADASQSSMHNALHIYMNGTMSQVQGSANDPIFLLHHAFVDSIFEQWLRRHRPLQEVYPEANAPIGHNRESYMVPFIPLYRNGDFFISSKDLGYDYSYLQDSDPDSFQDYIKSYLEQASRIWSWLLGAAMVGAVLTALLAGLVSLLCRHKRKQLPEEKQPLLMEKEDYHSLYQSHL
Method: (§1) In order to evaluate the effect of promoting black hair formation, the activity of tyrosinase was measured in Sk-mel-31, a human melanoma cell, and B16F10, a mouse melanoma cell. The cells were cultivated in an incubator at 37° C. (5% CO2 and 60% relative humidity) while maintaining a density of 1×10^6 cells/ml for Sk-mel-31 and 2×10^5 cells/ml for B16F10 in RPMI-1640 medium (containing 1% penicillin-streptomycin and 10% fetal bovine serum). The cells were stabilized in the incubator for 24 hours, and the culture medium containing FBS was replaced by FBS-free RPMI-1640. The cells were treated with mixed rare earth elements of 10 μg, 1 μg, 100 ng, 10 ng, 1 ng, 100 pg, […] and 1 pg, respectively, and individual rare earth elements of 10 ng. In order to measure the activity of tyrosinase, the cells were cultivated for a given time, centrifuged (100×g) for 10 minutes, and harvested. […] The cells were placed in an ice bath for one hour, and centrifuged with 40,000×g at 4° C. for 20 minutes to obtain a cell extract. 130 μl of 5 mM L-DOPA (L-3,4-dihydroxyphenylalanine) and 120 μl of 25 mM MBTH (3-methyl-2-benzothiazolinone hydrazone) were added to 250 μl of an analysis buffer containing 100 mM potassium phosphate (pH 7.1), 4% N,N-dimethylformamide and 0.1% (v/v) Triton X-100, and reacted in a thermostat at 37° C. for 5 minutes, and then, 100 μg of the cell extract was added thereto, and further reacted for 2 hours. Then, 500 μl of 1 M perchloric acid was added thereto and the mixture was centrifuged with 9,000×g at room temperature for 20 minutes. Then, the supernatant was taken and absorbance was measured at 505 nm.

tyrosinase [2] = target: T2, tyrosinase (Mus musculus, UniProt P11344); assay: Activity of tyrosinase in B16F10 cells; conditions: 10 μg to 1 pg, versus control group, FIG. 8
T2 sequence (P11344 19-533): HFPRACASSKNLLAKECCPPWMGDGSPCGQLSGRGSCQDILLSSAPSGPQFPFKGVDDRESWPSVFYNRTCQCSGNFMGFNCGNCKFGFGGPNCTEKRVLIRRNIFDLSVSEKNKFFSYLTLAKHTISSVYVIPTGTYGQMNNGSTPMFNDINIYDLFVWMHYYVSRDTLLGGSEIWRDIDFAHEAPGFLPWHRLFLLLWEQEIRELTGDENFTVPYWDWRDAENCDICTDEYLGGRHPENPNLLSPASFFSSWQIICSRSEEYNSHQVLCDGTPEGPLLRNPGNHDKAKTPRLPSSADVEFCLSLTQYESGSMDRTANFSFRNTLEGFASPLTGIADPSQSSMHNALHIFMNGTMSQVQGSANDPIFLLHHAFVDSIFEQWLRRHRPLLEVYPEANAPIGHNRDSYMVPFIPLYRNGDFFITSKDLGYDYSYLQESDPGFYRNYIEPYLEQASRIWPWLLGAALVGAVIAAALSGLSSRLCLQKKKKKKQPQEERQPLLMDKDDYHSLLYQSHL
Method: as §1

tyrosinase [3] = assay: Expression of tyrosinase in B16F10 cells by Western blotting; conditions: mouse melanoma cell line; versus control group; FIG. 9
Method: (§2) Cells were cultivated according to the same process as in Experimental Example 6, and centrifuged (100×g) for 10 minutes to harvest the cells. In order to measure the expression of tyrosinase by Western blotting, 100 μg of the cell extract was resolved on 10% SDS-PAGE, transferred to NC, and then, blocked with TBS containing 5% skim milk. Then, it was reacted with a primary antibody diluted to 1:2,500 (monoclonal anti-tyrosine hydroxylase clone Th-2) and a secondary antibody diluted to 1:5,000 (anti-mouse IgG), respectively, and washed with TBS containing 0.2% Tween-20, and then, photosensitized on an X-ray film using an ECL detection kit. Then, OD values were graphed using an image analysis program of LabWork™ (version 4.4.00.0).

[4] = tested on: Mouse embryo fibroblasts NIH 3T3; assay: MTT cell proliferation assay in NIH 3T3 fibroblasts
Method: Mouse embryo fibroblasts NIH 3T3 were cultivated in an incubator at 37° C. ([…], 5% CO2 and 60% humidity) while maintaining a density of 2×10^6 or 4×10^6 cells/ml in Dulbecco's modified Eagle's media (DMEM) supplemented with 10% fetal bovine serum (FBS) and 1% penicillin-streptomycin. Cell proliferation was measured by using MTT [3-(3,5-dimethyl-thiazol-2-yl)-2,5-diphenyltetrazolium bromide] assay. For MTT assay, the cells were plated in a 96-well plate at 2×10^3 cells/ml per well, and treated with a culture medium supplemented with 10% FBS. The cells were stabilized in the incubator for 24 hours, the culture medium supplemented with FBS was replaced by FBS-free DMEM, and the cells were treated with mixed rare earth elements of 10 μg, 1 μg, 100 ng, 10 ng, 1 ng, 100 pg, 10 pg and 1 pg, respectively, and individual rare earth elements of 10 ng. Then, the cells were cultivated for a given time, 50 μl per well of MTT (2 mg/l ml sterilized distilled water) was added thereto, and the mixture was reacted for 4 hours. The reaction mixture was treated with DMSO (dimethyl sulfoxide) and shaken for 30 minutes. Absorbance was measured at 540 nm using an ELISA reader (550, Bio-rad).

tyrosinase [5] = assay: Expression of tyrosinase in Sk-mel-31 cells by Western blotting; conditions: human melanoma cell line; versus control group; FIG. 9
Method: as §2

[6] = tested on: B16F10, a mouse melanoma cell; assay: Melanin production in B16F10 cells; conditions: mouse melanoma cell line; versus control group; FIG. 10
Method: (§3) Cells were cultivated according to the same process as in Experimental Example 6, and centrifuged (100×g) for 10 minutes to harvest the cells. In order to measure the production of melanin, 200 μg of the cell extract was added to 1 N NaOH (total 1 ml), allowed to stand at room temperature for 30 minutes, and then, absorbance was measured at 400 nm.
(§4) In order to measure the production of melanin, the cells were cultivated and harvested according to the same process as that of Experimental Example 6, and the production of melanin was measured according to the same process as that of Experimental Example 8.

[7] = tested on: Sk-mel-31, a human melanoma cell; assay: Melanin production in Sk-mel-31 cells; conditions: human melanoma cell line; versus control group; FIG. 10
Method: as §3, §4

Row | Structure (SMILES) | tyrosinase activity (tyrosinase [1]) | tyrosinase activity (tyrosinase [2]) | expression of tyrosinase (tyrosinase [3]) | cell proliferation compared with the non-treated group ([4]; 10 μg to 1 pg, FIG. 1) | cell proliferation compared with the non-treated group ([4]; each element of 10 ng, FIG. 2) | expression of tyrosinase (tyrosinase [5]) | melanin production [6] | melanin production [7]
1 | [La] [La, lanthanum] | increased; also recorded: relatively lower effect | increased; also recorded: relatively lower effect | relatively lower effect | increased | relatively inferior effect | relatively lower effect | relatively lower effect | relatively lower effect
2 | [Eu] [Eu, europium] | increased; also recorded: substantially the same effect as mixed rare earth elements | increased; also recorded: substantially the same effect as mixed rare earth elements | substantially the same effect | increased | – | substantially the same effect | substantially the same effect | substantially the same effect
3 | [Sm] [Sm, samarium] | relatively lower effect | relatively lower effect | relatively lower effect | – | relatively inferior effect | relatively lower effect | relatively lower effect | relatively lower effect
4 | [Nd] [Nd, neodymium] | relatively lower effect | relatively lower effect | relatively lower effect | – | relatively inferior effect | relatively lower effect | relatively lower effect | relatively lower effect
5 | [Lu] [Lu, lutetium] | relatively lower effect | relatively lower effect | relatively lower effect | – | relatively inferior effect | relatively lower effect | relatively lower effect | relatively lower effect
6 | [Gd] [Gd, gadolinium] | increased; also recorded: relatively lower effect | increased; also recorded: relatively lower effect | relatively lower effect | increased | relatively inferior effect | relatively lower effect | relatively lower effect | relatively lower effect
